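How tested: cells in 96-well plates exposed to compound for 48 hours at five concentrations. At the GI50, growth is halved. TGI is the concentration that stops growth completely.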
Experiments:
Experiment in all cases: NCI tumour cell line growth inhibition, 48 h; in the data active = GI50 below about 0.43 µM; inactive = the rest
BT-549 breast = tested on: BT-549 breast
UO-31 renal = tested on: UO-31 renal
HT29 colon = tested on: HT29 colon
NCI-H522 lung = tested on: NCI-H522 lung
MALME-3M melanoma = tested on: MALME-3M melanoma
SNB-75 CNS = tested on: SNB-75 CNS
DU-145 prostate = tested on: DU-145 prostate
OVCAR-5 ovarian = tested on: OVCAR-5 ovarian
HOP-62 NSCLC = tested on: HOP-62 NSCLC
SN12C renal = tested on: SN12C renal
SK-MEL-28 melanoma = tested on: SK-MEL-28 melanoma
OVCAR-4 ovarian = tested on: OVCAR-4 ovarian
HCT-15 colon = tested on: HCT-15 colon
SK-MEL-5 melanoma = tested on: SK-MEL-5 melanoma
SW-620 colon = tested on: SW-620 colon
HCC-2998 colon = tested on: HCC-2998 colon
NCI/ADR-RES ovarian = tested on: NCI/ADR-RES ovarian
SF-295 CNS = tested on: SF-295 CNS
NCI-H23 lung = tested on: NCI-H23 lung
A549 NSCLC = tested on: A549 NSCLC
CCRF-CEM leukemia = tested on: CCRF-CEM leukemia
SK-MEL-2 melanoma = tested on: SK-MEL-2 melanoma
SF-268 CNS = tested on: SF-268 CNS
HS 578T breast = tested on: HS 578T breast
OVCAR-8 ovarian = tested on: OVCAR-8 ovarian
OVCAR-3 ovarian = tested on: OVCAR-3 ovarian
LOX IMVI melanoma = tested on: LOX IMVI melanoma
MDA-MB-435 = tested on: MDA-MB-435
MDA-MB-231 breast = tested on: MDA-MB-231 breast
SK-OV-3 ovarian = tested on: SK-OV-3 ovarian
KM12 colon = tested on: KM12 colon
K-562 leukemia = tested on: K-562 leukemia
UACC-62 melanoma = tested on: UACC-62 melanoma
MOLT-4 leukemia = tested on: MOLT-4 leukemia
NCI-H460 lung = tested on: NCI-H460 lung
COLO 205 colon = tested on: COLO 205 colon
RPMI-8226 leukemia = tested on: RPMI-8226 leukemia
SF-539 CNS = tested on: SF-539 CNS
CAKI-1 renal = tested on: CAKI-1 renal
M14 melanoma = tested on: M14 melanoma
TK-10 renal = tested on: TK-10 renal
IGROV1 ovarian = tested on: IGROV1 ovarian
NCI-H226 lung = tested on: NCI-H226 lung
SR leukemia = tested on: SR leukemia
HCT-116 colon = tested on: HCT-116 colon
SNB-19 CNS = tested on: SNB-19 CNS
UACC-257 melanoma = tested on: UACC-257 melanoma
U251 CNS = tested on: U251 CNS
T-47D breast = tested on: T-47D breast
MCF7 breast = tested on: MCF7 breast
PC-3 prostate = tested on: PC-3 prostate
786-0 renal = tested on: 786-0 renal
RXF 393 renal = tested on: RXF 393 renal
HL-60(TB) leukemia = tested on: HL-60(TB) leukemia
ACHN renal = tested on: ACHN renal
A498 renal = tested on: A498 renal
HOP-92 NSCLC = tested on: HOP-92 NSCLC
EKVX NSCLC = tested on: EKVX NSCLC

Nc1ccccc1SC(CC(=O)c1ccccc1)c1ccc([N+](=O)[O-])cc1 (stereo unspecified)
28.8 µM: TGI (CAKI-1 renal)
30 µM: TGI (SF-295 CNS)
29.4 µM: TGI (SK-MEL-5 melanoma)
24.1 µM: TGI (MDA-MB-231 breast)
36.3 µM: TGI (NCI-H226 lung) | TGI (T-47D breast)
24.2 µM: TGI (ACHN renal)
27.6 µM: TGI (SK-MEL-28 melanoma)
25.9 µM: TGI (OVCAR-4 ovarian)
47.6 µM: TGI (HS 578T breast)
10.9 µM: TGI (SW-620 colon)
25.8 µM: TGI (SF-268 CNS)
3.16 µM: TGI (HCT-116 colon)
21.6 µM: TGI (IGROV1 ovarian)
29.6 µM: TGI (HCC-2998 colon) | TGI (RXF 393 renal)
16.1 µM: TGI (MCF7 breast)
27.2 µM: TGI (DU-145 prostate) | TGI (NCI-H23 lung)
26.6 µM: TGI (BT-549 breast)
27 µM: TGI (NCI-H522 lung)
23.3 µM: TGI (SNB-75 CNS)
31 µM: TGI (SK-OV-3 ovarian) | TGI (786-0 renal)
36 µM: TGI (NCI-H460 lung)
7.38 µM: TGI (SR leukemia)
23.7 µM: TGI (OVCAR-3 ovarian)
30.6 µM: TGI (OVCAR-5 ovarian)
31.2 µM: TGI (COLO 205 colon)
60.1 µM: TGI (MOLT-4 leukemia)
inactive: GI50 (BT-549 breast) 13.6 µM | GI50 (UO-31 renal) 7.75 µM | GI50 (HT29 colon) 4.3 µM | GI50 (NCI-H522 lung) 12.9 µM | GI50 (MALME-3M melanoma) 15.3 µM | GI50 (SNB-75 CNS) 11.2 µM | GI50 (DU-145 prostate) 13.9 µM | GI50 (OVCAR-5 ovarian) 16.6 µM | GI50 (HOP-62 NSCLC) 14.5 µM | GI50 (SN12C renal) 11.6 µM | GI50 (SK-MEL-28 melanoma) 14.4 µM | GI50 (OVCAR-4 ovarian) 12.6 µM | GI50 (HCT-15 colon) 8.51 µM | GI50 (SK-MEL-5 melanoma) 15.6 µM | GI50 (SW-620 colon) 2.88 µM | GI50 (HCC-2998 colon) 15.8 µM | GI50 (NCI/ADR-RES ovarian) 14.5 µM | GI50 (SF-295 CNS) 16.1 µM | GI50 (NCI-H23 lung) 13.5 µM | GI50 (A549 NSCLC) 16.6 µM | GI50 (CCRF-CEM leukemia) 13.7 µM | GI50 (SK-MEL-2 melanoma) 18 µM | GI50 (SF-268 CNS) 12.4 µM | GI50 (HS 578T breast) 18.1 µM | GI50 (OVCAR-8 ovarian) 14.1 µM | GI50 (OVCAR-3 ovarian) 11.4 µM | GI50 (LOX IMVI melanoma) 1.91 µM | GI50 (MDA-MB-435) 14.3 µM | GI50 (MDA-MB-231 breast) 11.8 µM | GI50 (SK-OV-3 ovarian) 17.3 µM | GI50 (KM12 colon) 3.86 µM | GI50 (K-562 leukemia) 3.91 µM | GI50 (UACC-62 melanoma) 12.1 µM | GI50 (MOLT-4 leukemia) 13.5 µM | GI50 (NCI-H460 lung) 17.3 µM | GI50 (COLO 205 colon) 16.7 µM | GI50 (RPMI-8226 leukemia) 2.91 µM | GI50 (SF-539 CNS) 17.2 µM | GI50 (CAKI-1 renal) 15.2 µM | GI50 (M14 melanoma) 13.8 µM | GI50 (TK-10 renal) 18.6 µM | GI50 (IGROV1 ovarian) 5.69 µM | GI50 (NCI-H226 lung) 18 µM | GI50 (SR leukemia) 2.57 µM | GI50 (HCT-116 colon) 1.67 µM | GI50 (SNB-19 CNS) 12.2 µM | GI50 (UACC-257 melanoma) 14.5 µM | GI50 (U251 CNS) 4.51 µM | GI50 (T-47D breast) 12.1 µM | GI50 (MCF7 breast) 3.31 µM | GI50 (PC-3 prostate) 10.3 µM | GI50 (786-0 renal) 17.2 µM | GI50 (RXF 393 renal) 15.8 µM | GI50 (HL-60(TB) leukemia) 12.6 µM | GI50 (ACHN renal) 11.8 µM | GI50 (A498 renal) 14.3 µM
14.8 µM: TGI (K-562 leukemia)
35.2 µM: TGI (HL-60(TB) leukemia)
32.6 µM: TGI (A549 NSCLC)
27.8 µM: TGI (M14 melanoma) | TGI (UACC-257 melanoma)
28 µM: TGI (HOP-62 NSCLC) | TGI (MDA-MB-435)
28.9 µM: TGI (NCI/ADR-RES ovarian)
31.1 µM: TGI (SF-539 CNS)
32.7 µM: TGI (TK-10 renal)
33 µM: TGI (SK-MEL-2 melanoma)
30.3 µM: TGI (MALME-3M melanoma)
21.5 µM: TGI (UO-31 renal)
24.6 µM: TGI (SNB-19 CNS)
14.6 µM: TGI (HT29 colon)
46.7 µM: TGI (CCRF-CEM leukemia)
23.8 µM: TGI (SN12C renal)
16.9 µM: TGI (U251 CNS)
27.7 µM: TGI (A498 renal)
4.15 µM: TGI (LOX IMVI melanoma)
14.9 µM: TGI (KM12 colon)
22.4 µM: TGI (HCT-15 colon) | TGI (PC-3 prostate)
24.5 µM: TGI (UACC-62 melanoma)
9.06 µM: TGI (RPMI-8226 leukemia)
27.4 µM: TGI (OVCAR-8 ovarian)

Cc1[nH]n(C2=NCCN2)c(=O)c1C
> 100 µM: TGI (BT-549 breast) | TGI (UO-31 renal) | TGI (HT29 colon) | TGI (NCI-H522 lung) | TGI (MALME-3M melanoma) | TGI (SNB-75 CNS) | TGI (OVCAR-5 ovarian) | TGI (HOP-62 NSCLC) | TGI (OVCAR-4 ovarian) | TGI (HCT-15 colon) | TGI (SK-MEL-5 melanoma) | TGI (SW-620 colon) | TGI (NCI/ADR-RES ovarian) | TGI (SF-295 CNS) | TGI (NCI-H23 lung) | TGI (A549 NSCLC) | TGI (CCRF-CEM leukemia) | TGI (SK-MEL-2 melanoma) | TGI (HOP-92 NSCLC) | TGI (SF-268 CNS) | TGI (HS 578T breast) | TGI (OVCAR-8 ovarian) | TGI (OVCAR-3 ovarian) | TGI (LOX IMVI melanoma) | TGI (MDA-MB-435) | TGI (MDA-MB-231 breast) | TGI (SK-OV-3 ovarian) | TGI (KM12 colon) | TGI (K-562 leukemia) | TGI (UACC-62 melanoma) | TGI (MOLT-4 leukemia) | TGI (NCI-H460 lung) | TGI (COLO 205 colon) | TGI (RPMI-8226 leukemia) | TGI (EKVX NSCLC) | TGI (SF-539 CNS) | TGI (CAKI-1 renal) | TGI (M14 melanoma) | TGI (TK-10 renal) | TGI (IGROV1 ovarian) | TGI (NCI-H226 lung) | TGI (SR leukemia) | TGI (HCT-116 colon) | TGI (SNB-19 CNS) | TGI (UACC-257 melanoma) | TGI (U251 CNS) | TGI (T-47D breast) | TGI (MCF7 breast) | TGI (PC-3 prostate) | TGI (786-0 renal) | TGI (RXF 393 renal) | TGI (HL-60(TB) leukemia) | TGI (ACHN renal) | TGI (A498 renal)

From PubChem BioAssay (NCI)
